Data: article PMC10527105, “Chirality Matters: Fine-Tuning of Novel Monoamine Reuptake Inhibitors Selectivity through Manipulation of Stereochemistry” (Biomolecules, 2023)
Where two headings read alike, the source gives them in different places.

Tests used:
rat cortical neurons = assay: Neurite outgrowth assay (Cyprotex); type: cell-based; details: for IC50: 72 h
Experimental: Neurite outgrowth assay. […] were carried out by Cyprotex (an Evotec Company, Toulouse, France), Study No. CYP2052-R1. For an in-depth description, please refer to the report in the supporting information files. Cryo-preserved rat cortical neurons (QBM Cell Science, R-Cx-500) were quickly thawed and slowly diluted with neurobasal medium supplemented with L-glutamine (Invitrogen, Cat. No. 25030-081), penicillin-streptomycin (Invitrogen, Cat. No. 15140-122), and B27 (NB/B27 medium, Invitrogen, Cat. No. 17504-044). After a gentle centrifugation step, the neurons were resuspended in NB/B27 medium at a density of 4.0 × 10^6 cells/mL. One hour prior to treatment, the neurons were plated in 384-well plates (Corning 354663) pre-coated with a laminin solution (Sigma L2020 1 mg/mL) at a density of 10,000 cells per well. After treatment with test articles and control compounds, the neurons were maintained in a humidified environment at 37 °C with 5% CO2 for 72 h. At the end of the treatment period, the neurons were fixed for 1 h with a 3.7% formaldehyde solution (Acros Organics, 41073-0010). The neurons were washed with phosphate buffered saline (PBS) (SH30264.02) and permeabilized for 10 min with a 0.5% solution of Triton X-100 (Millipore Sigma, X100). After another wash step, the neurons were stained for one hour with Hoechst 33342 (ThermoFisher Scientific, H3570) and the anti-beta III tubulin antibody, Alexa Fluor® 488 conjugate (Millipore Sigma AB15708A4), diluted in a blocking buffer solution (Thermo Scientific, 37525). Upon completion of the staining step, the neurons were washed again, and the plates were sealed in preparation for the imaging process. The neurons were evaluated for neurite outgrowth and cell health using the high-content imaging platform, ArrayScan VTi (Thermo Scientific ArrayScan VTi), with an optimized neuronal profiling bio-application.
This assay assessed cell health and neurite outgrowth utilizing a neuronal profiling bio-application applied to images obtained on an ArrayScan VTi. Valid neuron count, mean neurite average length, and neurite total length per neuron were determined and reported. Raw data were normalized to the vehicle control and reported as a normalized% response. Dose response graphs were generated with GraphPad Prism using a sigmoidal dose-response (variable slope) algorithm.

[1] = biological target: T1, noradrenaline transporter/SLC6A2 (NET) (Homo sapiens, UniProt P23975); details: cells stably expressing NET; ref [35]; read-out: Reuptake Inhibition (IC50 ± SE, µM) NET; cited from earlier work
T1 construct: expressed in transfected cells; host or cells: HEK293
T1 sequence (P23975 whole entry): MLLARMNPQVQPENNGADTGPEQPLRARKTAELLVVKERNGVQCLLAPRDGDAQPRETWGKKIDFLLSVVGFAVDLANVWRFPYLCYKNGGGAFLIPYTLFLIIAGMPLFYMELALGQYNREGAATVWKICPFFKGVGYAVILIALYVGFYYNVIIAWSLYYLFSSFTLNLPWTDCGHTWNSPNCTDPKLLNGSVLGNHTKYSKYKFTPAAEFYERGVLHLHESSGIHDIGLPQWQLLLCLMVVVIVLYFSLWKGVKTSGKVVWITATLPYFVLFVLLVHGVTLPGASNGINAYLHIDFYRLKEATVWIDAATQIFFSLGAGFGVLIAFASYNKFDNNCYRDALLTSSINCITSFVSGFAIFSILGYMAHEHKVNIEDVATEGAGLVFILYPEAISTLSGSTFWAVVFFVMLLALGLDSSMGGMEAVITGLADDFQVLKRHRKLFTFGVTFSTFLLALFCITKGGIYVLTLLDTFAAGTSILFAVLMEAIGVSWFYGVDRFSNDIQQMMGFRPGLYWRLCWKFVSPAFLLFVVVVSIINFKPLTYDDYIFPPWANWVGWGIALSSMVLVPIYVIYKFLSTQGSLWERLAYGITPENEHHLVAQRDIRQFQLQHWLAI

Row | Compound | IC50 (rat cortical neurons; Rattus norvegicus, Cortical neurone, read-out: Mean Neurite Avg. Length IC50, rat cortical neurons, 72 h) | IC50 (rat cortical neurons; Rattus norvegicus, Cortical neurone, read-out: Neurite Total Length per Neuron IC50, rat cortical neurons, 72 h) | IC50 (rat cortical neurons; Rattus norvegicus, Cortical neurone, read-out: Valid Neuron Count IC50, rat cortical neurons, 72 h) | effect on neurite outgrowth in relation to effect on cell viability (rat cortical neurons; rat cortical neurons) | IC50 (rat cortical neurons; read-out: Mean Neurite Avg. Length IC50, rat cortical neurons) | IC50 (rat cortical neurons; Cortical neurone, rat cortical neurons, read-out: Mean Neurite Avg. Length IC50) | IC50 (rat cortical neurons; Cortical neurone, rat cortical neurons, read-out: Neurite Total Length per Neuron IC50) | IC50 (rat cortical neurons; Cortical neurone, rat cortical neurons, read-out: Valid Neuron Count IC50) | IC50 [1]
1 | CN(C)CCCN1c2ccccc2Sc2ccc(Cl)cc21 [Chlorpromazine, reference compound] | 9.02 µM | 13.8 µM | 7.99 µM | not independent of its effect on cell viability | 9.02 µM | – | – | – | –
2 | COC(=O)Nc1nc2ccc(C(=O)c3cccs3)cc2[nH]1 [Nocodazole, reference compound] | – | – | – | positive for substantially affecting neurite outgrowth while nominally affecting cell viability | – | 0.097 µM | 0.0997 µM | 2.22 µM | –
3 | NC(=O)C[S@@+]([O-])C(c1ccccc1)c1ccccc1 [R-Modafinil] | – | – | – | – | – | – | – | – | 169 ± 90 µM
